# Results: article PMC12224939, “Trypstatin as a Novel TMPRSS2 Inhibitor with Broad‐Spectrum Efficacy against Corona and Influenza Viruses” (Advanced Science, 2025)
# Entries after “also recorded” stand apart in the source; their conditions may differ. Bridge positions count the residues as written; N and C are the ends.
# Assays:
# [1] = test system: lentiviral pseudoparticles harboring VSV-G glycoprotein; format: cell-based
# [2] = molecular target: T1, TMPRSS14 (Matriptase) (Homo sapiens, UniProt Q9Y5Y6); test: Recombinant TMPRSS14 activity assay; format: biochemical; settings: recombinant enzyme
# T1 construct: purchased 3946
# Description: In the next step, 50 µL of 20 µM BOC‐Gln‐Ala‐Arg‐AMC protease substrate (Bachem #4017019) in the case of TMPRSS2 and TMPRSS14 or 50 µL of 150 µM BOC‐Gln‐Arg‐Arg‐AMC (PeptaNova) in the case of TMPRSS1 was added and incubated for 2 h for TMPRSS2, or 5 mins in the case of TMPRSS1/14 at 37 °C. Fluorescence intensity was measured after 2 h at an excitation wavelength of 380 nm and emission wavelength of 460 nm in a SynergyTM H1 microplate reader (BioTek) with Gen5 3.04 software. […] Assays were performed in a total volume of 100 µL in quadruplicate wells of a 96 Nunc well plate (Thermo Scientific #10174221) with a final TMPRSS2 concentration of 20 nM. Initial velocities were measured in 50 s intervals for 15 min with excitation of 360 nm and emission of 460 nm in a SynergyTM H1 microplate reader. K m and V max were calculated from Michaelis–Menten plots using GraphPadPrism. The inhibitory constant K i was calculated from the IC50 values according to the Cheng–Prusoff equation (K i = IC50/(1 + [S]/K m)) for competitive reversible inhibitors.^[ [91] ^]
# [3] = molecular target: T2, cathepsin L (Homo sapiens, UniProt P07711); test: Cathepsin L activity assay; format: biochemical; settings: recombinant enzyme
# T2 construct: purchased R&D 952-Cy
# Description: (§1) Cathepsin enzyme activity assays were performed as described before.^[ [42] ^] In brief, serially diluted compounds were mixed with recombinant cathepsin L (R&D #952‐Cy) in assay buffer (50 mM MES, 5 mM DTT, 1 mM EDTA, 0.005% Brij35, pH 6) or with cathepsin B from human placenta (Sigma Aldrich #C0150) in assay buffer (105.6 mM KH2PO4, 14.4 mM Na2HPO4, 1.2 mM EDTA, 0.07% Brij35, 2.4 mM L‐cysteine, pH 6). The protease‐inhibitor mixtures were incubated for 10 min at RT before the addition of the respective fluorogenic reporter substrate Z‐Leu‐Arg‐AMC (for cathepsin L; Bachem #4034611) or Z‐Arg‐Arg‐AMC (for cathepsin B; Bachem #4004789). The final concentrations were as follows: Cathepsin L 0.01 µg mL^−1, cathepsin B 1 µg mL^−1, Z‐Leu‐Arg‐AMC 40 µM or Z‐Arg‐Arg‐AMC 30 µM. Fluorescence intensity was recorded at an excitation wavelength of 380 nm and emission wavelength of 460 nm after 25 min at 37 °C (cathepsin L) or after 60 min at 40 °C (cathepsin B) in a Synergy H1 microplate reader (BioTek) with Gen 5 3.04 software.
# [4] = molecular target: T3, cathepsin B from human placenta (Homo sapiens, UniProt P07858); test: Cathepsin B activity assay; format: biochemical; settings: enzyme from human placenta
# T3 construct: cathepsin B from human placenta (Sigma Aldrich #C0150); purchased Sigma Aldrich C0150; host or cells: human placenta (tissue-derived)
# Description: as §1
# [5] = molecular target: T4, recombinant furin (Homo sapiens, UniProt P09958); test: Furin activity assay; format: biochemical
# T4 construct: purchased Bachem (so in the source) 1503-SE-010
# Description: Furin activity assay was conducted as described previously with slight changes.^[ [42] ^] In brief, Trypstatin was mixed with recombinant furin (Bachem #1503‐SE‐010, final concentration 1.0 ng µL^−1) in assay buffer (25 mM Tris, 1 mM CaCl2, pH 9) for 30 min at room temperature before the addition of […] ‐L‐pyroglutamyl‐modified RTKR‐ AMC substrate (Bachem #4018149) per well with a final concentration of 1 mM CaCl2 in water. Fluorescence intensity was recorded in 2 min intervals for 5 h at an excitation wavelength of 355 nm and emission wavelength of 460 nm at 37 °C in a Cytation 3 (BioTek) microplate reader. The area under the curve values were normalized to the furin control. Hexa‐D‐arginine served as inhibitor control.
# [6] = molecular target: T5, recombinant ACE2 (Homo sapiens, UniProt Q9BYF1); test: Recombinant ACE2 assay; format: biochemical
# T5 construct: purchased R&D 933-ZN
# Description: To determine the activity of Trypstatin against ACE2, 25 µL of 0,4 µg mL^−1 recombinant ACE2 (R&D #933‐ZN) in assay buffer (75 mM Tris, 1 M NaCl, pH 7.5) was mixed with 25 µL of inhibitor for 15 min at 37 °C before addition of 50 µL of 40 µM of MCA‐YVADAPK(Dnp)‐OH substrate (R&D #ES007) and incubation for 5 min at 37 °C. Fluorescence intensity was measured after 5 min at an excitation wavelength of 320 nm and emission wavelength of 405 nm in a SynergyTM H1 microplate reader (BioTek) with Gen5 3.04 software.
# [7] = test system: SARS-CoV-2 BA.5; format: cell-based
# [8] = molecular target: T6, TMPRSS2 Syrian gold hamster (Mesocricetus auratus, UniProt A0A1U8C7C8); test: Cellular hamster TMPRSS2 activity assay in transfected HEK293T cells; format: cell-based; settings: compared with human TMPRSS2
# T6 construct: encoding the respective transmembrane serine protease per well; host or cells: HEK293T
# Description: Twenty thousand HEK293T cells were seeded in a 96‐well flat bottom plate. The next day, cells were transfected with 100 ng of an expression plasmid (Backbone: Twist Bioscience, EF1alpha mammalian expression vector) encoding the respective transmembrane serine protease per well using LT1 transfection reagent (TMPRSS2 human NCBI RefSeq: NP_005647.3; TMPRSS2 Syrian gold hamster NCBI RefSeq: XP_012971683.1; TMPRSS11D NCBI RefSeq: NP_004253.1; TMPRSS13 NCBI RefSeq: NP_001070731.1). In short, plasmid DNA was mixed in a 1:3 ratio with LT1 in a serum‐free medium and incubated for 20 min before the mixture was applied dropwise onto the cells. Sixteen hours post‐transfection, the medium was replaced by a serum‐free medium, and cells were treated with serial dilution of compounds in PBS. After 15 min of incubation at 37 °C, 100 µM of respective protease‐specific substrate (TMPRSS2: Boc‐QAR‐AMC, Bachem # 4017019; TMPRSS11D: Boc‐FSR‐AMC, Bachem # 4012340; TMPRSS13: Pyr‐RTKR‐AMC, Bachem #4018149) was added and incubated for 2 h at 37 °C. Fluorescence intensity was recorded at an excitation wavelength of 380 nm and emission wavelength of 460 nm in a Synergy H1 microplate reader (BioTek) with Gen 5 3.04 software. Values were background corrected for non‐transfected HEK293T‐cells. […]
# [9] = test system: Caco-2 cells; test: Cytotoxicity assay (CellTiter-Glo); format: cell-based, human; settings: 48 h, ATP levels, tested concentrations
# Description: To assess the cytotoxicity of the inhibitors used, 10 000 Caco2 cells were seeded in a 96‐well flat bottom plate. The next day, the medium was replaced and cells were treated with serial dilutions of compounds or PBS as a control. After 48 h, cell viability was assessed by measuring ATP levels in cell lysates with a commercially available kit (CellTiter‐Glo, Promega) in an Orion II microplate reader with Simplicity 4.2 software.
# [10] = test system: IL-1ß, IL-6, CCL5, CXCL10, IRF1 expression in HAECs; format: cell-based, human
# [11] = test system: SARS-CoV-2 Delta; settings: hamster, in vivo
# T5 sequence (Q9BYF1 18-805): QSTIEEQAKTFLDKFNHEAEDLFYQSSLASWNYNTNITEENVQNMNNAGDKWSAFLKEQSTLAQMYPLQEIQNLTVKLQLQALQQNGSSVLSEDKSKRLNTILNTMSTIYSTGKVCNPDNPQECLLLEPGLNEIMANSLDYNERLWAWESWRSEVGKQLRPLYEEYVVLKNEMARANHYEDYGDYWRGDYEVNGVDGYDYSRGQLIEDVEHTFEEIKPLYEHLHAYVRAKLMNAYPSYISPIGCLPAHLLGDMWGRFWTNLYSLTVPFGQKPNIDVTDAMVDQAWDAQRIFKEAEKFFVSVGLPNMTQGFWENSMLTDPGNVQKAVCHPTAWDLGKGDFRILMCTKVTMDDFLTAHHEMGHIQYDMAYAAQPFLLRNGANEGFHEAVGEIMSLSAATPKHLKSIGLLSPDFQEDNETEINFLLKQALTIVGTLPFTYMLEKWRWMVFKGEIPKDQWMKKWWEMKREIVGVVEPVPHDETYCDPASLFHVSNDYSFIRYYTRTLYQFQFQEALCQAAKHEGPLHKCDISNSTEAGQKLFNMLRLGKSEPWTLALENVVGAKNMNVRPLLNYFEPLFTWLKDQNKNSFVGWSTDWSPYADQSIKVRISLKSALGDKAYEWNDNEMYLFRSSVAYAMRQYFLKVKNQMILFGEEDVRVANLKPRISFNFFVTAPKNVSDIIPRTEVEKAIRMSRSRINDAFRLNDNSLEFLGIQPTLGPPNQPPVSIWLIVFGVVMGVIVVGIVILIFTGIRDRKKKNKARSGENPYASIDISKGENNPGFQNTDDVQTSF
# T4 sequence (P09958 108-794): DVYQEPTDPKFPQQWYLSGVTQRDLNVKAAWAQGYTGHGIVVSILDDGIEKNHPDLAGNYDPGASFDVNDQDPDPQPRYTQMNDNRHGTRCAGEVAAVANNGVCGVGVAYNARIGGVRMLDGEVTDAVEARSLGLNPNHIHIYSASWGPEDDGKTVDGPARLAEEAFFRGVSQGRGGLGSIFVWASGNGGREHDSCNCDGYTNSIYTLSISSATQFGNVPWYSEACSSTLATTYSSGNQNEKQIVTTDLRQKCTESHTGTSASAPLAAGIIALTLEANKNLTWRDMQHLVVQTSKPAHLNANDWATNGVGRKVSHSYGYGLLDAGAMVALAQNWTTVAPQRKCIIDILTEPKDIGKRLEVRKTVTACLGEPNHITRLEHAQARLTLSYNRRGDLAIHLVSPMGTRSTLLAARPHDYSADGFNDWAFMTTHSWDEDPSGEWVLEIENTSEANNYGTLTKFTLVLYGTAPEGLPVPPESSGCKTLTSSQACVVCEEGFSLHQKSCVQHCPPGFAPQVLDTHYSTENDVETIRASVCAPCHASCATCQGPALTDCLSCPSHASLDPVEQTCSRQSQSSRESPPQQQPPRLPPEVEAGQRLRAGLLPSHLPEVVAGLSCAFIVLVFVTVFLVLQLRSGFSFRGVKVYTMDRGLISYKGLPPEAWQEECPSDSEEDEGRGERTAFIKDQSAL
# T6 sequence (A0A1U8C7C8 1-492): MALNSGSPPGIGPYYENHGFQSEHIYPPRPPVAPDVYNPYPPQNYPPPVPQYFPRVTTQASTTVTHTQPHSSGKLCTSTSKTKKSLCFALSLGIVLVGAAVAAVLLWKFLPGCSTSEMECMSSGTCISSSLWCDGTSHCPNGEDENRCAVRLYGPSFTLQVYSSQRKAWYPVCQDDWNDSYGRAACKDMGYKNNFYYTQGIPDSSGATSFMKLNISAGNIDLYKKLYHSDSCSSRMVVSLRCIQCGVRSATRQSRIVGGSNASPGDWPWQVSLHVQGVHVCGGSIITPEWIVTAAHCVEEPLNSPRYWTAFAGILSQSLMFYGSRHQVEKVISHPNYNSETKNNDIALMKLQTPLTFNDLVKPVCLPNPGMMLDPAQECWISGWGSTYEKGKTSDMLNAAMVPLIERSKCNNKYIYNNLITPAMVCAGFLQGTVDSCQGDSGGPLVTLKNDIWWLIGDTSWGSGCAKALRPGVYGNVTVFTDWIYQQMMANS
# T2 sequence (P07711 114-333): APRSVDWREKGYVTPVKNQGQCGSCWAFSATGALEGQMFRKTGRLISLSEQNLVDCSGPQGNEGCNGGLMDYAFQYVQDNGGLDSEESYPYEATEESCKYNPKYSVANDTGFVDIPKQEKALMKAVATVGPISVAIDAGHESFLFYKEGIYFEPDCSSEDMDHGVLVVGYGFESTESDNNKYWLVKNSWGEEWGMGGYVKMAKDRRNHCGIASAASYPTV
# T1 sequence (Q9Y5Y6 whole entry): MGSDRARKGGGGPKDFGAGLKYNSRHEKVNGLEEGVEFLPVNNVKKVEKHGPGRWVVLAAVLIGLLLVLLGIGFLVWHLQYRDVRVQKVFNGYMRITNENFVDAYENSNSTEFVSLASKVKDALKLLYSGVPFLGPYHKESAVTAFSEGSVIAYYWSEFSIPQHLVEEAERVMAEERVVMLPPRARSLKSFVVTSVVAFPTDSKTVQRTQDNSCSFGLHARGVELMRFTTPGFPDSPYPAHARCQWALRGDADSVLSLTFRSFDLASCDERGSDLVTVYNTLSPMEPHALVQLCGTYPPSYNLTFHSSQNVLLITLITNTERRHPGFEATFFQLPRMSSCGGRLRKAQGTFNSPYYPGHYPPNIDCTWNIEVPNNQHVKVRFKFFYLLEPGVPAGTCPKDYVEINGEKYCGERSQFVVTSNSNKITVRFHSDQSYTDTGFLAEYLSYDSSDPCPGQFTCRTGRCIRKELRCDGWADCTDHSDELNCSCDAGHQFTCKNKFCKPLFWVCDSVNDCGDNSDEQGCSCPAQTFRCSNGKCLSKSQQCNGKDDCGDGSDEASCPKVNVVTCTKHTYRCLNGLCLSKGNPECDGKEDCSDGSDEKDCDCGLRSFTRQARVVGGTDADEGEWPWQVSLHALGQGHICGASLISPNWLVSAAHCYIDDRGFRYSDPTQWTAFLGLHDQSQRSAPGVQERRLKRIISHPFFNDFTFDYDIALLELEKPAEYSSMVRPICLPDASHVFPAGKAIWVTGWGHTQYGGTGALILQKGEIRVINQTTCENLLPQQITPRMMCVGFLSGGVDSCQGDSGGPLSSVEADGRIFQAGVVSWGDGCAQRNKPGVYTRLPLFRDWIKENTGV
sequence,measurement,setting,value
"VAACNLPIVRGPCRAFIQLWAFDAVKGKCVLFPYGGCQGNGNKFYSEKECREYCGVPGDGD (disulfide 4-54, 13-37, 29-50 (inferred)) [Trypstatin]",effect on VSV-G-mediated pseudoparticle entry,[1],without affecting VSV‐G‐driven entry
same,inhibition of TMPRSS14,[2],no effect
same,inhibition of Cathepsin L,[3],did not inhibit
same,inhibition of Cathepsin B,[4],did not inhibit
same,inhibition of Furin,[5],did not inhibit; also recorded: does not inhibit
same,inhibition of ACE2,[6],did not inhibit; also recorded: does not inhibit
same,reduction of SARS-CoV-2 BA.5 replication over 72 h,[7],up to four orders of magnitude
same,inhibition of hamster TMPRSS2,[8],IC50 values similar to those for human TMPRSS2; also recorded: blocks hamster and human TMPRSS2 activity with similar efficacies
same,cytotoxicity / cell viability,[9],does not influence cell viability
same,effect on expression of inflammatory genes,[10],failed to reach significance; also recorded: does not have a significant anti-inflammatory effect
same,"clinical symptoms (piloerection, weakness, fatigue, abnormal posture)",[11],almost entirely absent
same,infectious virus particles in BAL (TCID50),[11],significantly reduced
same,side effects in hamsters,[11],without observed side effects
same,viral loads in BAL (qPCR),[11],significantly reduced
